# According to publication PMC4549706, “Rational Design of Highly Potent and Slow-Binding Cytochrome bc1 Inhibitor as Fungicide by Computational Substitution Optimization” (Scientific Reports, 2015):
# Read-outs that look alike come from different tables or passages of the source.
# System: Sphaerotheca fuliginea (Schlecht.) Poll.
# Assay: In vivo fungus growth inhibitory rate at 200 mg/L, powdery mildew
# Source text: Based on the above in vitro study, compounds with nanomolar and subnanomolar Ki values were selected from the total 21 newly synthezised compounds for further studies. Pesticide likeness, defined as a complex balance of various physicochemical properties and structure features, can evaluate whether a molecule is similar to the known pesticides. After the filtration of pesticide likeness, seven compounds were kept to adhere to our previously defined rules for pesticide-likeness including molecular weight (MW) ≤ 435 Da, ClogP ≤ 6, number of H-bond acceptors (HBA) ≤ 6, number of H-bond donors (HBD) ≤ 2, number of rotatable bonds (ROB) ≤ 9, and number of aromatic bonds (ARB) ≤ 17 (Table 1)[24]. […] Therefore, compound 18 was recognized as lead compound for subsequent studies.
# [a] Compounds are named as “series number-site number plus substitution group number” a: -F, b: -Cl, c:
# -Br, d: -NO2, e: -CH3, f: -CF3, g: -OCH3, h: -OH, i: -NH2, j: -COOH.
# [b] Substitution number and group.
# [c] CH is “series 1” and N is “series 2”. […]
# Table S2 Fungus growth inhibitory rate of target compounds (200 mg/L).
# Comp. No. R X Sphaerotheca fuliginea Pseudoperonospora cubensis
smiles,measurement,setting,value
COC=C(C(=O)OC)c1ccccc1CSc1nc2cc(OC)ccc2s1 [Compound 18],"Fungus growth inhibitory rate, Sphaerotheca fuliginea",,completely inhibited
same,"Fungus growth inhibitory rate, Sphaerotheca fuliginea",listed as Comp. 18,100%
